ChEMBL document CHEMBL5321213, “Nicolaioidesin C: An Antiausterity Agent Shows Promising Antitumor Activity in a Pancreatic Cancer Xenograft Mouse Model” (J Nat Prod, 2023)
The source made the active and inactive calls. The rule behind the calls is not given here.

What was measured:
MIA PaCa-2 [1] = assay: Inhibition of autophagy in human MIA PaCa-2 cells in DMEM medium assessed as downregulation of LC3 protein expression at 5 to 20 uM measured after 6 hrs by Western blot analysis; assay type: functional, cell-based; conditions: dose 5-20 µM
MIA PaCa-2 [2] = assay: Antitumor activity against human MIA PaCa-2 cells xenografted in athymic BALB/c-nu mouse assessed as fold change in methionine level in tumor at 2 mg/kg/day, ip administered five times per week for 4 weeks by LC-MS analysis; assay type: functional
MIA PaCa-2 [3] = assay: Antitumor activity against human MIA PaCa-2 cells xenografted in athymic BALB/c-nu mouse assessed as fold change in phenyl alanine level in tumor at 2 mg/kg/day, ip administered five times per week for 4 weeks by LC-MS analysis; assay type: functional
MIA PaCa-2 [4] = assay: Antitumor activity against human MIA PaCa-2 cells xenografted in athymic BALB/c-nu mouse assessed as fold change in nicotinamide level in tumor at 10 mg/kg/day, ip administered five times per week for 4 weeks by LC-MS analysis; assay type: functional
MIA PaCa-2 [5] = assay: Antimetastatic activity in human MIA PaCa-2 cells in DMEM media assessed as inhibition of colony formation at 40 uM incubated for 24 hrs followed by replacement with fresh medium and measured after 10 days by crystal violet staining-based assay relative to control; assay type: functional
MIA PaCa-2 [6] = assay: Preferential cytotoxicity against human MIA PaCa-2 cells in nutrient-deprived medium assessed as alteration in cell morphology by measuring cell rounding at 5 uM measured after 24 hrs by acridine orange and ethidium bromide dual fluorescent staining based imaging analysis; assay type: functional
MIA PaCa-2 [7] = assay: Antitumor activity against human MIA PaCa-2 cells xenografted in athymic BALB/c-nu mouse assessed as fold change in biotin level in tumor at 10 mg/kg/day, ip administered five times per week for 4 weeks by LC-MS analysis; assay type: functional
MIA PaCa-2 [8] = assay: Antitumor activity against human MIA PaCa-2 cells xenografted in athymic BALB/c-nu mouse assessed as fold change in 3-sulfolacticacid level in tumor at 10 mg/kg/day, ip administered five times per week for 4 weeks by LC-MS analysis; assay type: functional
PANC-1 = assay: Preferential cytotoxicity against human PANC-1 cells in nutrient-deprived medium assessed as alteration in cell morphology by measuring cell rounding at 5 uM measured after 24 hrs by acridine orange and ethidium bromide dual fluorescent staining based imaging analysis; assay type: functional
[9] = Toxicity in athymic BALB/c-nu mouse xenografted with human MIA PaCa-2 cells assessed as body weight loss at 2 to 10 mg/kg/day, ip administered five times per week for 4 weeks; assay type: organism-based; conditions: in vivo, 672 h, dose 2-10 mg/kg/day
MIA PaCa-2 [10] = assay: Antitumor activity against human MIA PaCa-2 cells xenografted in athymic BALB/c-nu mouse assessed as fold change in asparagine level in tumor at 2 mg/kg/day, ip administered five times per week for 4 weeks by LC-MS analysis; assay type: functional
MIA PaCa-2 [11] = assay: Antitumor activity against human MIA PaCa-2 cells xenografted in athymic BALB/c-nu mouse assessed as fold change in leucine level in tumor at 2 mg/kg/day, ip administered five times per week for 4 weeks by LC-MS analysis; assay type: functional
MIA PaCa-2 [12] = assay: Antitumor activity against human MIA PaCa-2 cells xenografted in athymic BALB/c-nu mouse assessed as fold change in biotin level in tumor at 2 mg/kg/day, ip administered five times per week for 4 weeks by LC-MS analysis; assay type: functional
MIA PaCa-2 [13] = assay: Antitumor activity against human MIA PaCa-2 cells xenografted in athymic BALB/c-nu mouse assessed as fold change in alanine level in tumor at 10 mg/kg/day, ip administered five times per week for 4 weeks by LC-MS analysis; assay type: functional
MIA PaCa-2 [14] = assay: Preferential cytotoxicity against human MIA PaCa-2 cells in nutrient-deprived medium assessed as alteration in cell morphology by measuring cell blebbing at 5 uM measured after 24 hrs by acridine orange and ethidium bromide dual fluorescent staining based imaging analysis; assay type: functional
MIA PaCa-2 [15] = assay: Inhibition of Akt/mTOR signaling pathway in human MIA PaCa-2 cells in DMEM media assessed as reduction in mTOR phosphorylation at S2481 residue at 5 to 20 uM measured after 6 hrs by Western blot analysis; assay type: cell-based; conditions: dose 5-20 µM
MIA PaCa-2 [16] = assay: Antitumor activity against human MIA PaCa-2 cells xenografted in athymic BALB/c-nu mouse assessed as fold change in nicotinamide level in tumor at 2 mg/kg/day, ip administered five times per week for 4 weeks by LC-MS analysis; assay type: functional
MIA PaCa-2 [17] = assay: Antitumor activity against human MIA PaCa-2 cells xenografted in athymic BALB/c-nu mouse assessed as fold change in D-ribulose5-phosphate level in tumor at 10 mg/kg/day, ip administered five times per week for 4 weeks by LC-MS analysis; assay type: functional
MIA PaCa-2 [18] = assay: Antimetastatic activity in human MIA PaCa-2 cells in DMEM media assessed as inhibition of colony formation at 20 uM incubated for 24 hrs followed by replacement with fresh medium and measured after 10 days by crystal violet staining-based assay relative to control; assay type: functional
MIA PaCa-2 [19] = assay: Antitumor activity against human MIA PaCa-2 cells xenografted in athymic BALB/c-nu mouse assessed as fold change in cytidine diphosphate ethanolamine level in tumor at 2 mg/kg/day, ip administered five times per week for 4 weeks by LC-MS analysis; assay type: functional
MIA PaCa-2 [20] = assay: Antitumor activity against human MIA PaCa-2 cells xenografted in athymic BALB/c-nu mouse assessed as fold change in D-glucuronicacid level in tumor at 10 mg/kg/day, ip administered five times per week for 4 weeks by LC-MS analysis; assay type: functional
MIA PaCa-2 [21] = assay: Antitumor activity against human MIA PaCa-2 cells xenografted in athymic BALB/c-nu mouse assessed as fold change in sphinganine level in tumor at 10 mg/kg/day, ip administered five times per week for 4 weeks by LC-MS analysis; assay type: functional
MIA PaCa-2 [22] = assay: Antitumor activity against human MIA PaCa-2 cells xenografted in athymic BALB/c-nu mouse assessed as fold change in cytidine 5'-monophosphate-N-acetylneuraminic acid level in tumor at 10 mg/kg/day, ip administered five times per week for 4 weeks by LC-MS analysis; assay type: functional
MIA PaCa-2 [23] = assay: Antitumor activity against human MIA PaCa-2 cells xenografted in athymic BALB/c-nu mouse assessed as fold change in 2,6-diaminopimelicacid level in tumor at 10 mg/kg/day, ip administered five times per week for 4 weeks by LC-MS analysis; assay type: functional
MIA PaCa-2 [24] = assay: Antitumor activity against human MIA PaCa-2 cells xenografted in athymic BALB/c-nu mouse assessed as fold change in Gly-Leu metabolite level in tumor at 10 mg/kg/day, ip administered five times per week for 4 weeks by LC-MS analysis; assay type: functional
MIA PaCa-2 [25] = assay: Antitumor activity against human MIA PaCa-2 cells xenografted in athymic BALB/c-nu mouse assessed as fold change in glycerol-3-phosphate level in tumor at 10 mg/kg/day, ip administered five times per week for 4 weeks by LC-MS analysis; assay type: functional
MIA PaCa-2 [26] = assay: Antitumor activity against human MIA PaCa-2 cells xenografted in athymic BALB/c-nu mouse assessed as fold change in lysine level in tumor at 2 mg/kg/day, ip administered five times per week for 4 weeks by LC-MS analysis; assay type: functional
MIA PaCa-2 [27] = assay: Antitumor activity against human MIA PaCa-2 cells xenografted in athymic BALB/c-nu mouse assessed as fold change in leucine level in tumor at 10 mg/kg/day, ip administered five times per week for 4 weeks by LC-MS analysis; assay type: functional

## COc1cc(O)c(C(=O)[C@@H]2CC=C(CCC=C(C)C)C[C@H]2c2ccccc2)c(O)c1
MIA PaCa-2 [1]
  inhibition: inactive
MIA PaCa-2 [2]
  fold change (FC): 0.44
MIA PaCa-2 [3]
  fold change (FC): 0.44
MIA PaCa-2 [4]
  fold change (FC): 0.39
MIA PaCa-2 [5]
  inhibition at 40 µM: 99%
MIA PaCa-2 [6]
  Activity: Active
MIA PaCa-2 [7]
  fold change (FC): 0.43
MIA PaCa-2 [8]
  fold change (FC): 0.44
PANC-1
  Activity: Active
[9]
  Activity: Non-Toxic
MIA PaCa-2 [10]
  fold change (FC): 0.33
MIA PaCa-2 [11]
  fold change (FC): 0.43
MIA PaCa-2 [12]
  fold change (FC): 0.86
MIA PaCa-2 [13]
  fold change (FC): 0.42
MIA PaCa-2 [14]
  Activity: Active
MIA PaCa-2 [15]
  inhibition: inactive
MIA PaCa-2 [16]
  fold change (FC): 0.52
MIA PaCa-2 [17]
  fold change (FC): 0.22
MIA PaCa-2 [18]
  inhibition at 20 µM: 95%
MIA PaCa-2 [19]
  fold change (FC): 0.4
MIA PaCa-2 [20]
  fold change (FC): 0.68
MIA PaCa-2 [21]
  fold change (FC): 3.68
MIA PaCa-2 [22]
  fold change (FC): 0.31
MIA PaCa-2 [23]
  fold change (FC): 0.36
MIA PaCa-2 [24]
  fold change (FC): 0.4
MIA PaCa-2 [25]
  fold change (FC): 0.24
MIA PaCa-2 [26]
  fold change (FC): 0.32
MIA PaCa-2 [27]
  fold change (FC): 0.41
